Legend:
C. elegans embryos = assay: Viability of nematodes in carbon monoxide based atmospheres; assay type: in vivo; settings: for Viability to adulthood: 0.25 kPa O2/CO, 24 hrs
Text: To achieve specific atmospheric conditions the following apparatus was used: a glass syringe barrel having a tip with a locking device such as a LUER-LOK with the large opening of the barrel sealed with a custom-machined steel and rubber fitting to make an airtight seal was locked to via locking device to the inlet port of an environmental chamber having an inlet and an outlet port each fitted with a locking devices such as a LUER-LOK fitting. A defined gas was humidified and provided to the environmental chamber by first venting the gas from a compressed tank (Byrne Specialty Gas, Seattle, Wash.) through a gas washing bottle (500 ml Kimex) filled with double distilled water. The gas washing bottle was connected to the environmental chamber past a gas-flow meter. A gas flow meter was used to provide a regulated 70 cc/min flow through the environmental chamber throughout the 24 hr incubation.
To test whether induced, reversible stasis could be achieved in C. elegans nematodes, 2-cell C. elegans embryos, L3 larvae or adult nematodes were collected and exposed to either an environment of effectively 100% CO, an environment of 100% N2, an environment comprising 500 ppm oxygen balanced with carbon monoxide, or to environments comprising 100, 500 or 1000 ppm oxygen balanced with nitrogen at room temperature. Nematodes were visualized using differential interference contrast microscopy (also known as Nomarski optics). Images were collected and analyzed using NIH image and Adobe Photoshop 5.5. Embryos are approximately 50 μm in length.
Environmental chambers and apparatuses. Oxygen deprivation experiments were carried out using a custom atmospheric chamber designed by W. Van Voorhies (Van Voorhies et al., 2000). The chamber is a 30 mL glass syringe (Fisher #14-825-10B) fitted with a custom steel stopper that is lined with two viton o-rings to ensure a tight seal. The stopper is bored through and has a steel lure lock on the exterior face so that a hose carrying compressed gas can be attached. A defined gas mixture is delivered to the chamber at a constant pressure and flow rate from compressed tanks by passing first through a rotometer (Aalborg, flow-tube number 032-41ST) or mass flow controller (Sierra Instruments #810) to monitor flow rate and then through a 500 ml gas washing bottle (Fisher #K28220-5001) containing 250 ml water to hydrate the gas. ¼″ OD nylon (Cole-Parmer #P-06489-06) or FEP (Cole-Parmer #A-06450-05) tubing was used and connections between tubing and the regulators and between the tubing and the rotometers were made with brass John-Guest-type fittings (Byrne Gas). All other connections were made with either microflow quick-connect fittings (Cole-Parmer #A-06363-57, #A-06363-52) or standard lure fittings (Cole-Parmer #A-06359-37, #A-06359-17).
Viability of nematodes in carbon monoxide based atmospheres. 30-60 embryos were harvested from continuously maintained Bristol N2 and hif-2(ia04) strains as described above. Environmental chambers were continuously perfused at room temperature with pure CO (grade CP) or 500 ppm O2/CO at 70 cc/min for 24 hrs. To achieve 2500 ppm O2/CO or 2500 ppm O2/N2, 5000 ppm O2/N2 was mixed at a 1:1 ratio with either pure CO or pure N2 using two mass flow controllers (Sierra Instruments 810) to precisely monitor flow. Each gas was delivered into a 3-way valve (Cole-Parmer #A-30600-23) at 50 cc/min and the resulting mixture was then passed through a gas washing bottle and into an environmental chamber throughout the 24 hour exposure. All gases were supplied by Byrne Gas (Seattle, Wash.). The 500 ppm O2/CO mixture was certified to 2% of the oxygen content and contained 7000 ppm N2 to ensure a consistent O2/CO ratio throughout the use of the tank.
Cell biological analysis. […]

humans [1] = settings: around 1000 ppm, more than around 1-2 minutes; cited from earlier work
human keratinocytes = assay: Preservation of human skin in carbon monoxide, keratinocyte colony formation; assay type: cell-based
Description: Three human foreskins were obtained for this purpose. The foreskin tissue was preserved in keratinocyte growth medium (KGM) containing insulin, EGF (0.1 ng/ml), hydrocortisone ([…]) and bovine pituitary extract (approx. 50 micrograms/ml of protein). Foreskins were rinsed in PBS, and excess fatty tissue was removed. Each foreskin sample was divided into 2 equal pieces. Each piece was placed into a separate container containing a solution of PBS with 24 mg/ml of Dispase II (from Bacillus Polymyxa EC 3.4.24.4:Roche Diagnostics Corp., Indianapolis, Ind.). One container (containing a foreskin piece in PBS with Dispase II) was kept in a humid chamber in a fume hood. The other container (with the other half of the foreskin in PBS with Dispase II) was placed in the same fume hood in an environmental chamber perfused with humidified 100% CO. Both samples were maintained at room temperature for 24 hrs. Methods used to establish defined atmospheric conditions were identical to those used in Example 1.
Following the 24 hr exposure to normoxia or 100% CO, keratinocytes were isolated from the foreskins according to the method described by Boyce et al. (1983; 1985; each of which is incorporated herein by reference in its entirety). Briefly, the epidermis from each foreskin sample was removed to a fresh dish containing PBS. The epidermis was minced and homogenized prior to incubation in 3 ml of 0.05% Trypsin, 1 mM EDTA for 5 minutes, at room temperature, to separate basal cells from the epidermis. After incubation, 6 ml of 400 μg/ml (micrograms per ml) Soybean Trypsin Inhibitor, 1 mg/ml BSA was added and the samples were centrifuged at 900 RPM. The supernatant from each sample was discarded and the sample pellets were resuspended in 10 ml of KGM. Each sample was split into two 10 cm plates each of which contained 5 ml KGM and 100 μl of HEPES pH 7.3 (N-2-hydroxyethylpiperazine-N′-2-ethane sulfonic acid). The plates were incubated in a 37° C. incubator perfused with 95% room air, 5% carbon dioxide for five days.
Cells were inspected visually using an inverted phase contrast microscope. […] Quantitation of the number of viable keratinocytes as judged by colony formation was quantified for two of the three foreskins.

mice [2] = settings: 80 ppm, cited from earlier work
mice [3] = assay: Core body temperature, heart rate and movement of mice exposed to H2S (telemetry); assay type: in vivo, mouse
Text: Implantation of telemetry devices.
(§1) Exposure of Mice to Regulated Atmosphere.
Regulation of Ambient Temperature. […] Mice were exposed to regulated atmosphere as described above.

rats = settings: cited from earlier work
humans [4] = settings: cited from earlier work
mice [5] = assay: Respirometry of mice exposed to H2S; assay type: in vivo, mouse
Description: as §1
Measurements were over a period of 15 minutes, with the mice in a 0.5 L sealed environmental chamber with flow rates of 500 cc/min. Consumption of oxygen is obtained by subtracting the oxygen concentration when the mouse is present, from the control when the mouse is absent. Likewise, production of carbon dioxide is obtained by subtracting the carbon dioxide concentration when the mouse is present from the control when the mouse is absent. RQ stands for respiratory quotient, and is equal to the ratio of carbon dioxide produced to oxygen […]. […] The change in the respiratory quotient reflects the disparity oxygen consumption and carbon dioxide production by the mice in the presence or absence of the H2S.

mice [6] = settings: SHIRPA tests before and after exposure
[7] = warming phase after 80 ppm, cabinet 10.5° C.
[8] = 80 ppm, 15 minutes, 0.5 L chamber, 500 cc/min

[C-]#[O+] [CO, Carbon monoxide]
embryogenesis during exposure (C. elegans embryos; 0.05 kPa O2 balanced with carbon monoxide): arrested embryogenesis | Viability to adulthood (C. elegans embryos; hif-1(ia04) embryos): 83.9% ± 13.8 | Viability to adulthood (C. elegans embryos; wild-type (N2 strain) embryos): 78.7% | lethality and suspended animation (C. elegans embryos; 100% carbon monoxide, 24 hr, room temperature, nematodes): not lethal and induced reversible suspended animation | progression through embryogenesis during exposure (C. elegans embryos; 101 kPa CO): did not progress through embryogenesis | suspended animation and survival (C. elegans embryos; 500 ppm oxygen balanced with carbon monoxide, 24 hr): entered into suspended animation and survived | lethality (humans [1]): can expire | skin cell survival in CO versus room air (human keratinocytes; 100% CO, 24 hrs, human skin): 100 fold | Total colonies (human keratinocytes; Foreskin 1, 100% CO 24 hr): 542 colonies (many of which | Total colonies (human keratinocytes; Foreskin 2, 100% CO 24 hr): 780 colonies (many of which | growth of keratinocyte populations (human keratinocytes; foreskin 24 hr in 100% CO at room temperature, then five days culture, three foreskins): significant growth

S [H2S, Hydrogen sulfide]
adverse effects incl. gross and histopathological examination (mice [2]; 6 hrs per day, 5 days per week, 90 days): no observed adverse effect | tolerability (mice [2]; exposures lasting up to ten weeks): innocuous | core temperature (mice [3]; 80 ppm, 90 min, incubator lowered to 18° C., first mouse): 28.6 °C | heart rate (mice [3]; 80 ppm, 3 hrs, dropped from 600 bpm): 250 bpm | core temperature (mice [3]; 80 ppm, 3 hrs, incubator 18° C., second mouse): 18.6 °C | recovery after rewarming in room air (mice [3]; 80 ppm, 6 hrs, seven mice): successfully recovered | lowest average core body temperature (mice [3]; 80 ppm, 6 hrs, seven mice, ambient temperature 13° C.): 15 °C | lowest core body temperature recorded (mice [3]; 80 ppm, ambient dropped to less than 10° C. (FIG. 7)): 10.7 °C | time to recover activity after removal from gassing chamber (mice [3]; 80 ppm, cabinet 10° C., non-telemetry mouse): approximately 90 min | core temperature (estimation from slope of the drop) (mice [3]; 80 ppm, cabinet 10° C., telemetry mouse, electronics failed at 15.3° C.): approximately 12.5 °C | core body temperature (mice [3]; 80 ppm, cabinet 10.5° C., approximately six hours): 10.5 °C | time to return to normal range of core temperature and activity (mice [3]; after 90 min at 80 ppm, chamber perfused with room air): ≤ 60 min | behavior of the animals after exposure (mice [3]; maintained for 4 weeks after 6 hr at 80 ppm, 15° C.): no apparent change in the behavior | core body temperature at which normal movement and respiration were fully apparent (mice [3]; [7]): 25 °C | core body temperature at which weak respiration was observed (mice [3]; [7]): 14 °C | perinatal neurotoxicity (rats; 20 or 50 ppm, 7 hours per day, gestation through post-natal day 21, rats): longer dendritic branches with reduced aborization of cerebellar Purkinje cells | adverse effects incl. gross and histopathological examination (rats; 80 ppm, 6 hrs per day, 5 days per week, 90 days, rats): no observed adverse effect | perinatal study, neuropathology and behavior of rat pups (rats; 80 ppm): no neuropathological effects | discriminated avoidance responses (rats; moderate levels, immediately after end of exposure, rats): inhibits discriminated avoidance responses | radial arm maze learning (rats; moderate levels, rats): interferes with the ability of rats to learn a baited radial arm maze task | acute effect of a single breath (humans [4]; atmosphere with 0.1% hydrogen sulfide): immediately collapse | OSHA limit for humans (humans [4]): 10 ppm | acute effect of exposure (humans [4]; extreme levels (500 ppm)): sudden collapse and unconsciousness | decrease in CO2 production (mice [5]; 80 ppm (FIG. 4A)): approximately 3 fold | time to decrease in CO2 production / new baseline (mice [5]; 80 ppm (FIG. 4A)): approximately 5 minutes | drop in carbon dioxide production (mice [5]; [8]): 3-4 fold | drop in oxygen consumption (mice [5]; [8]): 2-3 fold | decrease in cellular respiration (mice [5]; 80 ppm, core temperature 15° C.): 1-20 fold | RQ (mice [5]; H2S present (80 ppm)): 0.58 | Consumption of oxygen (mice [5]; H2S present (80 ppm), control minus mouse present): 1300 ppm | [CO2] ppm (mice [5]; mouse present, H2S present (80 ppm)): 750 ppm | behavioral differences after gas exposure (mice [6]): no detectable behavioral differences
